Data from US20200276094A1, “COMPOSITIONS FOR SKIN EXPOLIATION AND USE THEREOF” (Allergan, Inc., priority 2011, published 2020).
“Also recorded” adds a separate entry of the source.

Key:
[1] = system: subjects having Fitzpatrick Skin Types I-IV; settings: split-face: Retinoic Acid 0.3% right side vs Retinol 2% left side; 7-day; FIG. 1
[2] = system: subjects with mild to moderate photodamage; experiment: Study 3: Retinol 3% (oil-free) vs. RA 0.3%, split-face single-blind clinical study, series of three peel procedures
[3] = FIG. 8, post-peel #3, blinded photograph evaluation by an expert physician

For CC1=C(/C=C/C(C)=C/C=C/C(C)=C/C(=O)O)C(C)(C)CCC1 [Retinoic Acid], the “stinging/burning and tightness (investigator and subject assessments)” value [1] was “more”, the “subjects preferred treated side, post-peel #1 subject assessment” value ([2]; FIG. 5) was 10 % of subjects and the “subjects preferred treated side, post-peel #2 subject assessment” value ([2]; FIG. 6) was 10 % of subjects. For the same molecule, the “subjects preferred treated side, post-peel #3 subject assessment” value ([2]; FIG. 7) was 0 % of subjects.
In the case of CC1=C(/C=C/C(C)=C/C=C/C(C)=C/CO)C(C)(C)CCC1 [retinol, (2E,4E,6E,8E)-3,7-dimethyl-9-(2,6,6-trimethylcyclohex-1-enyl)nona-2,4,6,8-tetraen-1-ol], the “investigator noticed no difference between the sides” value ([2]; FIG. 4, Retinol 3% (oil-free) vs Retinoic Acid 0.3%) is reported as 95 % of subjects, the “subjects felt no difference between the sides, post-peel #1” value ([2]; FIG. 5, Retinol 3% (oil-free) vs Retinoic Acid 0.3%) is reported as 75 % of subjects and the “subjects preferred treated side, post-peel #1 subject assessment” value ([2]; FIG. 5) is reported as 15 % of subjects. The “subjects felt no difference between the sides, post-peel #2” value ([2]; FIG. 6, Retinol 3% (oil-free) vs Retinoic Acid 0.3%) was 85 % of subjects, the “subjects preferred treated side, post-peel #2 subject assessment” value ([2]; FIG. 6) was 5 % of subjects and the “subjects felt no difference between the sides, post-peel #3” value ([2]; FIG. 7, Retinol 3% (oil-free) vs Retinoic Acid 0.3%) was 95 % of subjects. For the same molecule, the “subjects preferred treated side, post-peel #3 subject assessment” value ([2]; FIG. 7) was 5 % of subjects, the “improvement in fine lines and wrinkles compared to retinoic acid” value [2, 3] was “about twice as much improvement; also recorded: superior efficacy” and the “improvement in photodamage compared to retinoic acid” value [2, 3] was “about twice as much improvement; also recorded: superior efficacy”. The “improvement in unevenness of skin tone compared to retinoic acid” value [2, 3] was “about twice as much improvement; also recorded: superior efficacy”, the “subjects demonstrating a difference favoring the treated side” value ([2]; end of treatment, one subject) was 5% and the “adverse reaction on treated side” value ([2]; one subject, treated with topical hydrocortisone for 3 days, resolved, no reaction on re-challenge) was “irritation (rash, redness)”.
